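The compound was tested at five concentrations on cells cultured in 96-well plates, with a 48-hour exposure period. The concentration for full growth arrest is given as TGI.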
Experiments:
Assay in all cases: growth of human tumour cells (NCI), 48 h
[1] = test system: MOLT-4 leukemia
[2] = test system: UO-31 renal
[3] = test system: DU-145 prostate
[4] = test system: RPMI-8226 leukemia
[5] = test system: RXF 393 renal
[6] = test system: CAKI-1 renal
[7] = test system: SNB-19 CNS
[8] = test system: KM12 colon
[9] = test system: K-562 leukemia
[10] = test system: SK-MEL-5 melanoma
[11] = test system: NCI-H23 lung
[12] = test system: OVCAR-4 ovarian
[13] = test system: A498 renal
[14] = test system: COLO 205 colon
[15] = test system: HL-60(TB) leukemia
[16] = test system: SW-620 colon
[17] = test system: HOP-92 NSCLC
[18] = test system: SK-MEL-28 melanoma
[19] = test system: HS 578T breast

| Compound | TGI [1] [µM] | TGI [2] [µM] | TGI [3] [µM] | TGI [4] [µM] | TGI [5] [µM] | TGI [6] [µM] | TGI [7] [µM] | TGI [8] [µM] | TGI [9] [µM] | TGI [10] [µM] | TGI [11] [µM] | TGI [12] [µM] | TGI [13] [µM] | TGI [14] [µM] | TGI [15] [µM] | TGI [16] [µM] | TGI [17] [µM] | TGI [18] [µM] | TGI [19] [µM] |
| --- | --- | --- | --- | --- | --- | --- | --- | --- | --- | --- | --- | --- | --- | --- | --- | --- | --- | --- | --- |
| CCOC(=O)[C@]12C(=C(c3ccccc3)O[C@H]3C=CCC[C@H]31)C(=O)C(=O)N2c1ccccc1 | 61.3 | > 100 | > 100 | 51.6 | > 100 | > 100 | > 100 | > 100 | 84.5 | > 100 | > 100 | > 100 | > 100 | > 100 | – | – | – | – | – |
| C#CCNC(=O)NCCCC(NC(C)=O)C(=O)NCc1ccccc1 (configuration not stated) | > 100 | > 100 | – | > 100 | > 100 | > 100 | > 100 | > 100 | > 100 | > 100 | > 100 | > 100 | > 100 | > 100 | > 100 | > 100 | > 100 | > 100 | – |
| N#CC(c1nc2ccccc2s1)c1ncnc(Cl)c1[N+](=O)[O-] (configuration not stated) | > 100 | 91.3 | > 100 | > 100 | 89 | > 100 | > 100 | > 100 | – | 30 | 32.7 | > 100 | > 100 | 29.8 | – | 35.5 | 42.8 | 38.7 | – |
| N#CC1Cc2cc3c(cc21)OCO3 (configuration not stated) | > 100 | > 100 | > 100 | – | – | > 100 | > 100 | > 100 | > 100 | > 100 | > 100 | > 100 | > 100 | > 100 | – | > 100 | > 100 | > 100 | > 100 |
| CC(=O)O[C@]12CCCCC1C1(O)C(O)CCCCC12 (some centres not stated) | > 100 | > 100 | – | > 100 | > 100 | – | > 100 | > 100 | > 100 | > 100 | > 100 | > 100 | – | > 100 | > 100 | > 100 | – | > 100 | – |
| COCO[C@@H]1C[C@H]2C(=O)N(COC)c3ccccc3C(=O)N2C1 | > 100 | > 100 | > 100 | – | > 100 | > 100 | > 100 | > 100 | – | > 100 | > 100 | > 100 | > 100 | > 100 | > 100 | > 100 | – | > 100 | > 100 |
| NC(=O)C#CC#CC#CCO | 2.67 | 3.68 | – | – | 3.66 | – | 29.6 | 12.2 | 4.65 | 3.78 | 3.93 | 3.53 | 14.9 | 2.65 | 3.01 | 3.33 | 3.83 | 3.58 | – |
| O=[N+]([O-])c1ccc(-c2nc3ccc([N+](=O)[O-])cc3[nH]2)cc1 | > 100 | 61.4 | > 100 | > 100 | > 100 | > 100 | > 100 | > 100 | – | 44.9 | 65.3 | > 100 | – | 28.2 | – | > 100 | 59.4 | > 100 | > 100 |
| C=CCOC(=O)Cn1cc(C)c(=O)[nH]c1=O | > 100 | > 100 | > 100 | > 100 | – | > 100 | > 100 | > 100 | > 100 | > 100 | > 100 | > 100 | > 100 | > 100 | > 100 | > 100 | – | > 100 | > 100 |
| Cc1ccccc1C1OC(=O)c2ccccc21 (configuration not stated) | > 100 | > 100 | – | – | > 100 | – | > 100 | > 100 | > 100 | > 100 | > 100 | – | > 100 | > 100 | > 100 | > 100 | – | > 100 | – |
| CCOc1ccc(NC(=O)C(=O)NO)cc1 | > 100 | > 100 | – | > 100 | > 100 | > 100 | > 100 | > 100 | > 100 | > 100 | > 100 | > 100 | > 100 | > 100 | > 100 | > 100 | > 100 | > 100 | – |
| S=c1nc(Cc2ccc(Cl)cc2)[nH][nH]1 | > 100 | > 100 | > 100 | – | – | > 100 | > 100 | > 100 | > 100 | > 100 | > 100 | > 100 | > 100 | > 100 | – | > 100 | 85.7 | > 100 | > 100 |
| CCOC(O)(NC(=O)C(C(F)(F)F)C(F)(F)F)C(F)(F)F (configuration not stated) | > 100 | > 100 | – | > 100 | > 100 | – | > 100 | – | > 100 | > 100 | > 100 | – | > 100 | > 100 | > 100 | > 100 | – | > 100 | > 100 |
| COC(=O)C1=C(C(=O)OC)C(Cc2ccccc2)(OO)OC1=O (configuration not stated) | 30.8 | 26.9 | > 100 | – | 32.8 | 19.4 | 58.9 | 39.1 | 63.7 | > 100 | 44.4 | 52.3 | – | > 100 | 3.66 | > 100 | 42.4 | > 100 | – |
| Cc1ncc([N+](=O)[O-])n1CCN(C)C(=O)CCCn1ccnc1[N+](=O)[O-] | > 100 | > 100 | > 100 | > 100 | > 100 | > 100 | – | > 100 | > 100 | > 100 | > 100 | > 100 | > 100 | > 100 | > 100 | > 100 | – | > 100 | > 100 |
| O=c1[nH]c2ccc(Cl)cc2c2oc(-c3ccccc3)nc12 | > 100 | 44.2 | – | 64.7 | 71.8 | 39.7 | 43.1 | > 100 | > 100 | 85.8 | 74.9 | 35.4 | 43.4 | > 100 | – | > 100 | 52.2 | – | 41.2 |
| N#Cc1c2c(c(Nc3cccc(C(F)(F)F)c3)n3c1nc1ccccc13)CCC2 | > 100 | – | > 100 | > 100 | > 100 | > 100 | – | > 100 | – | > 100 | > 100 | > 100 | > 100 | > 100 | – | > 100 | > 100 | > 100 | – |
| C/C(=C\c1ccccc1)C(=O)NCc1ccc(C(=O)NCCC(C)C)cc1 | > 100 | > 100 | > 100 | > 100 | 63.4 | > 100 | > 100 | > 100 | > 100 | > 100 | > 100 | > 100 | > 100 | > 100 | – | > 100 | > 100 | > 100 | – |
| COC(=O)c1cc2c3c(cc(N(C)C)c2[nH]1)N(C(=O)c1cc2cc(OC)c(OC)c(OC)c2[nH]1)CC3CCl (configuration not stated) | 0.318 | – | < 0.0025 | 0.0324 | < 0.0025 | < 0.0025 | 0.0814 | 0.0118 | 0.788 | 0.00591 | – | 0.00605 | 0.0292 | 0.0131 | – | – | 0.756 | 0.0143 | – |
| c1ccc2c(c1)Nc1ccccc1[P+]21c2ccccc2Nc2ccccc21 | 1.11 | 23.3 | 3.46 | – | 0.891 | 11.2 | 1.09 | – | 1.75 | 0.31 | 0.83 | > 32.5 | 2.93 | 0.202 | 0.485 | 3.42 | – | 1.65 | 1.36 |
| COC(=O)C(C)(C)OCc1ccc(C2NC(=O)N(c3cccc(Cl)c3)C(=O)N2c2cccc(Cl)c2)cc1 (configuration not stated) | > 100 | > 100 | > 100 | > 100 | > 100 | > 100 | > 100 | > 100 | > 100 | 52.8 | 22.1 | > 100 | – | > 100 | – | > 100 | 69.7 | > 100 | 44.4 |
| O=C1CCCC2C(O)CCC[C@H]12 (some centres not stated) | > 100 | > 100 | > 100 | – | > 100 | > 100 | > 100 | > 100 | > 100 | > 100 | > 100 | > 100 | – | > 100 | > 100 | > 100 | – | > 100 | > 100 |
| CC(C)c1nc2cc(C(F)(F)F)ccc2[nH]c1=O | > 100 | > 100 | – | > 100 | > 100 | > 100 | > 100 | > 100 | > 100 | > 100 | > 100 | > 100 | > 100 | > 100 | > 100 | > 100 | > 100 | > 100 | 54.5 |
| Cc1ccc(Cc2n[nH]c(=O)n2-c2ccccc2)cc1 | > 100 | > 100 | > 100 | 76 | > 100 | > 100 | > 100 | > 100 | > 100 | > 100 | > 100 | – | > 100 | – | > 100 | > 100 | – | > 100 | – |
| CC1=NOC2(C1)C(=O)Nc1ccccc12 (configuration not stated) | > 100 | – | > 100 | > 100 | > 100 | > 100 | > 100 | > 100 | > 100 | > 100 | > 100 | > 100 | 96.4 | > 100 | > 100 | > 100 | – | > 100 | > 100 |
| O=c1[nH]cnc2c1sc1nc3ccccc3n12 | > 100 | > 100 | > 100 | > 100 | 84.4 | > 100 | > 100 | 54.9 | – | > 100 | > 100 | > 100 | > 100 | > 100 | – | > 100 | > 100 | > 100 | > 100 |
| Cc1nc2ccc(Cl)cc2c2c1CCS2 | 74.3 | > 100 | > 100 | 71.4 | > 100 | > 100 | > 100 | > 100 | > 100 | 77.7 | > 100 | > 100 | 99.2 | > 100 | 65 | > 100 | – | > 100 | > 100 |
| CC(C)(C)n1c(=O)[nH]n(C2NN=Cc3cccc4cccc2c34)c1=O (configuration not stated) | 81.1 | 70.3 | > 100 | 74.6 | 72.2 | > 100 | > 100 | > 100 | 40.7 | – | > 100 | > 100 | 64.9 | 74.9 | 42.1 | > 100 | – | > 100 | > 100 |
| COc1ccc(/C=C2\C(=O)N(C)C(=O)c3cc(OC)c(OC)cc32)cc1OC | > 100 | > 100 | > 100 | 66.9 | 51.6 | > 100 | > 100 | – | > 100 | 89.8 | > 100 | > 100 | > 100 | 47.9 | 40.1 | > 100 | 75.5 | – | – |

— PubChem BioAssay (NCI)
